Reference: PMC5591244, “Novel selective, potent naphthyl TRPM8 antagonists identified through a combined ligand- and structure-based virtual screening approach” (Scientific Reports, 2017)
Entries after “also recorded” stand apart in the source; their conditions may differ.

Legend:
Type in all cases: cell-based
[1] = target: T1, wt TRPM8 (Homo sapiens, UniProt Q7Z2W7); assay: Calcium mobilization on HEK-293 cells transiently transfected with wt myc-tagged TRPM8; settings: icilin at EC80, wt; read-out: pIC50, inhibition of icilin activation, wt TRPM8 (converted)
T1 construct: expressed in transfected cells; host or cells: HEK-293, transient (Lipofectamine 2000)
From the text: (§1) Single point mutations were introduced in the hTRPM8-coding sequence, and the mutated TRPM8 was cloned as N-terminal c-myc tagged version into the pcDNA3 expression vector. This was done in that way that the single variations could be easily swapped from the myc-tagged expression construct into the non-tagged TRPM8 wild type expression construct.
The list of the variants is the following: variant 1, t2233g, a2234c (=Y745A); variant 2, a2236g, t2237c (=I746A); variant 3, a2395g, a2396c (=N799A) and variant 4, a2405c (D802A). The cloning project comprised three steps. First of all, a unique XhoI restriction site was inserted by site-directed mutagenesis (SDM) using DNA of the pcDNA3_TRPM8 construct as template. The 0.6 kb DNA fragment between the unique 5′ XhoI (introduced) and 3′ BamHI (already present) restriction sites comprised all positions of the four single point mutations and could be later used for their insertion as well as swapping between myc-tagged and non-tagged TRPM8 versions. […] The obtained data from at least four wells (as replicates) were analyzed with GraphPad PRISM® software (version 5, GraphPad Software Inc.) to calculate the mean and standard error of the mean[58], to create sigmoidal concentration-response curves and to calculate IC50 values.

[2] = target: T2, TRPM8 I746A (Homo sapiens, UniProt Q7Z2W7, I746A); assay: Calcium mobilization on transiently transfected TRPM8 I746A mutant; settings: icilin at EC80, I746A; read-out: pIC50, inhibition of icilin activation, I746A (converted)
T2 construct: expressed in transfected cells; host or cells: HEK-293, transient (Lipofectamine 2000)
From the text: as §1
The list of the variants is the following: variant 1, t2233g, a2234c (=Y745A); variant 2, a2236g, t2237c (=I746A); variant 3, a2395g, a2396c (=N799A) and variant 4, a2405c (D802A). The cloning project comprised three steps. First of all, a unique XhoI restriction site was inserted by site-directed mutagenesis (SDM) using DNA of the pcDNA3_TRPM8 construct as template. The 0.6 kb DNA fragment between the unique 5′ XhoI (introduced) and 3′ BamHI (already present) restriction sites comprised all positions of the four single point mutations and could be later used for their insertion as well as swapping between myc-tagged and non-tagged TRPM8 versions. In a second step, the c-myc tag sequence was introduced embedded within the TRPM8 coding sequence by PCR primers in two partially overlapping PCRs that were then joined by bridge PCR with the external 5′KpnI and internal 3′EcoRI primers and in the last step the point mutations 1 to 4 were inserted into pcDNA3_c-myc-TRPM8 by exchanging the wild type 5′XhoI-3′BamHI fragment (0.6 kb) with each of the corresponding variation fragment derived from synthetic DNA (provided by GeneArt, ThermoFisher Scientific).The myc-tagged constructs were transiently transfected in HEK-293 cells with Lipofectamine 2000 (Invitrogen) according to the manufacturer’s protocol. The pcDNA vectors containing the wt myc-tagged TRPM8 gene and the empty pcDNA3 (mock) were separately transfected into HEK-293 cells as controls. Cells were transfected and seeded on the same day at 17,500 cells/well in poly-D-lysine-coated 384-well plates (MATRIX #4332-CPL). Twenty-four hours after seeding, the activity of transfected TRPM8 receptors was tested using the calcium mobilization assay as described above. The analysis was performed on the basis of ΔF/F° (normalized MAX-MIN), where ΔF is the MAX between time points 117 and 182 minus the MIN between time points TP114 and TP116, and F° is the basal signal at time point TP0. The obtained data from at least four wells (as replicates) were analyzed with GraphPad PRISM® software (version 5, GraphPad Software Inc.) to calculate the mean and standard error of the mean[58], to create sigmoidal concentration-response curves and to calculate IC50 values.

[3] = target: T3, TRPM8 (Homo sapiens, UniProt Q7Z2W7); assay: Manual patch clamp (whole-cell voltage clamp); settings: Cooling agent 10 50 μM, +40 mV, compound 1 300 nM
T3 construct: expressed in transfected cells
Procedure: Sixteen hours before an experiment, cells were seeded onto poly-D-lysine-coated glass slides (150,000 cells each) and placed in 6-well plates in antibiotic-free medium. Immediately before experiments, the coated glass slides with seeded cells were washed five times with patch-clamp extracellular solution (145 mM NaCl, 10 mM EGTA, 10 mM HEPES, 10 mM Glucose, pH 7.4 with NaOH) and then placed into the recording chamber.
The electrophysiology study involved a whole-cell voltage clamp and intracellular solution consisting of 128 mM CsCl, 10 mM EGTA, 0.7 mM CaCl2, 3 mM MgCl2, 10 mM HEPES, and 5 mM Na2ATP at pH 7.2 with CsOH. For the pulse protocols, cells were held at +40 mV, and outward currents were acquired in uninterrupted recording mode. Data were recorded in standard whole-cell voltage experiments performed at room temperature. For data acquisition and further analysis, an EPC10 digitally controlled amplifier was utilized in combination with PATCHMASTER software (HEKA Electronics, Lambrect, Germany). The EPC10 provides automatic subtraction of capacitive currents by means of the prepulse. The data were filtered at 2.9 KHz (−3 dB, 4-pole Bessel lowpass) and digitized at 100 µs per point. […] Outward currents elicited by the addition of 50 μM cooling agent 10 or of cooling agent 10 (50 μM) plus compound 1 (300 nM) were recorded.

[4] = target: TRPA1 (Homo sapiens, UniProt O75762); assay: Selectivity calcium mobilization assay, TRPA1; settings: agonist 10 μM AITC
Procedure: (§2) For calcium mobilization assays, cells were seeded at 10,000 cells/well in 384-well plates coated with poly-D-lysine (MATRIX black/clear bottom #4332-CPL, Thermo Scientific, Waltham, MA, USA) in complete medium.Twenty-four hours after seeding, the plates were washed with Tyrode’s buffer with a Bio-Tek-ELx405 Microplate Washer (Merck Millipore; Billerica, MA, USA), and then 10 µl/well of a solution containing the fluorescent Ca^2+ indicator Fluo-4 NW dye was added. Cells were incubated for 1 h at room temperature before test compounds were added at 3X the concentration with respect to the final wanted concentration to be tested with a FLIPR TETRA system (Molecular Devices, Sunnyvale, CA, USA). Calcium mobilization was monitored over a period of 5 min. A second injection of 10 µl/well of a reference agonist (icilin or Cooling agent 10) at 4X concentration in assay buffer was performed using the FLIPR TETRA system. Of note, for selectivity assays, the following agonists were used: 10 μM AITC (allyl isothiocyanate) for TRPA1; 100 nM Capsaicin for TRPV1; and 20 nM GSK1016790A for TRPV4.

[5] = target: TRPV1 (Homo sapiens, UniProt Q8NER1); assay: Selectivity calcium mobilization assay, TRPV1; settings: agonist 100 nM Capsaicin
Procedure: as §2

[6] = test system: TRPV3; assay: Selectivity, TRPV3 as named in the discussion

Chain of TRPA1 (O75762 whole entry, species assumed): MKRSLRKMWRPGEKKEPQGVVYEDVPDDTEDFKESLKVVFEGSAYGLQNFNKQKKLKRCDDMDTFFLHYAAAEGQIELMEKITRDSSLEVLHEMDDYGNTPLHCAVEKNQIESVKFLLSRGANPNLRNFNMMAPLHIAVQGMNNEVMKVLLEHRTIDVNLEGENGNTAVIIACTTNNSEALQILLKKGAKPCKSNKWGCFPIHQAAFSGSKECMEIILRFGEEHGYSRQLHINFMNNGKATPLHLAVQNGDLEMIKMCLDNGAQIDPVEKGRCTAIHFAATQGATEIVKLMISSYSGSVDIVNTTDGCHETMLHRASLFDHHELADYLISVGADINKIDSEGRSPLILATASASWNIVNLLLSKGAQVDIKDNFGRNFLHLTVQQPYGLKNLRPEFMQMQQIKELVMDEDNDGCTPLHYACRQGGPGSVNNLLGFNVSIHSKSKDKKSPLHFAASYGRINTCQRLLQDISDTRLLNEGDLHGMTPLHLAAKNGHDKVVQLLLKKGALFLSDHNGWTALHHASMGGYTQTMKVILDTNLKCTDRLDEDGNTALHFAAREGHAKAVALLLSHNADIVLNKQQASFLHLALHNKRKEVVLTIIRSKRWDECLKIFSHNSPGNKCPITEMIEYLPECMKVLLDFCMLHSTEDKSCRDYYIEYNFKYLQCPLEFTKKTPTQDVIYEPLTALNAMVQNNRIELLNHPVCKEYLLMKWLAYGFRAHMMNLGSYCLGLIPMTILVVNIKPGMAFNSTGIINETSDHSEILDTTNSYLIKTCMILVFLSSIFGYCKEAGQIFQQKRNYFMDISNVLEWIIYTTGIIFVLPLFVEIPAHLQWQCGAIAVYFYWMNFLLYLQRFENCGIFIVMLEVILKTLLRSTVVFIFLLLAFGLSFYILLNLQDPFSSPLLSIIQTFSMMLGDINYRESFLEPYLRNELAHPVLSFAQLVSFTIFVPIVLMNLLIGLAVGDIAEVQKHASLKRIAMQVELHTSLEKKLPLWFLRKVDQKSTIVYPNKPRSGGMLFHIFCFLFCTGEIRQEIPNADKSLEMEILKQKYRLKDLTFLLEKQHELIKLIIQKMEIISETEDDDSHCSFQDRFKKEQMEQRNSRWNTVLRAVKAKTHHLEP
Chain of TRPV1 (Q8NER1 whole entry, species assumed): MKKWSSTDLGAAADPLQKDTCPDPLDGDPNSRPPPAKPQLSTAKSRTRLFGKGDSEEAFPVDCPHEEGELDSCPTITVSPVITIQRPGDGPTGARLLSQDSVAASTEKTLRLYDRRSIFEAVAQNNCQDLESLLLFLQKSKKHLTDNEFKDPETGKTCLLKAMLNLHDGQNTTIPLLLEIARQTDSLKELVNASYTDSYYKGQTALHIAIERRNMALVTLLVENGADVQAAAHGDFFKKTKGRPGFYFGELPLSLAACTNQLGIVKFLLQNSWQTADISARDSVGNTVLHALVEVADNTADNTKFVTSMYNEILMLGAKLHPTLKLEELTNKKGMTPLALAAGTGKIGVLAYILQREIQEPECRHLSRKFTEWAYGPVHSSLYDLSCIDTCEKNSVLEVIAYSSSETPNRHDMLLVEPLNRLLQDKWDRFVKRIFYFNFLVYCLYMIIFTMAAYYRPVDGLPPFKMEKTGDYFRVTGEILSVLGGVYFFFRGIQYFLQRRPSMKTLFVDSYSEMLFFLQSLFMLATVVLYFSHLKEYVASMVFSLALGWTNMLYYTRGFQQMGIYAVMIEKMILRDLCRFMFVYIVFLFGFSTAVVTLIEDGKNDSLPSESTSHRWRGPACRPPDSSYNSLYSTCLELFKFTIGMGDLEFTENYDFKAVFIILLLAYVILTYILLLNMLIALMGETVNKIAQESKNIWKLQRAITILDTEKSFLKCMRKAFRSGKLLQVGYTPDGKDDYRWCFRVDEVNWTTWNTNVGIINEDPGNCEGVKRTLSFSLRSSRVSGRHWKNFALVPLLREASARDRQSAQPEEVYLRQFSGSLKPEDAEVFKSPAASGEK
T3 sequence (Q7Z2W7 whole entry): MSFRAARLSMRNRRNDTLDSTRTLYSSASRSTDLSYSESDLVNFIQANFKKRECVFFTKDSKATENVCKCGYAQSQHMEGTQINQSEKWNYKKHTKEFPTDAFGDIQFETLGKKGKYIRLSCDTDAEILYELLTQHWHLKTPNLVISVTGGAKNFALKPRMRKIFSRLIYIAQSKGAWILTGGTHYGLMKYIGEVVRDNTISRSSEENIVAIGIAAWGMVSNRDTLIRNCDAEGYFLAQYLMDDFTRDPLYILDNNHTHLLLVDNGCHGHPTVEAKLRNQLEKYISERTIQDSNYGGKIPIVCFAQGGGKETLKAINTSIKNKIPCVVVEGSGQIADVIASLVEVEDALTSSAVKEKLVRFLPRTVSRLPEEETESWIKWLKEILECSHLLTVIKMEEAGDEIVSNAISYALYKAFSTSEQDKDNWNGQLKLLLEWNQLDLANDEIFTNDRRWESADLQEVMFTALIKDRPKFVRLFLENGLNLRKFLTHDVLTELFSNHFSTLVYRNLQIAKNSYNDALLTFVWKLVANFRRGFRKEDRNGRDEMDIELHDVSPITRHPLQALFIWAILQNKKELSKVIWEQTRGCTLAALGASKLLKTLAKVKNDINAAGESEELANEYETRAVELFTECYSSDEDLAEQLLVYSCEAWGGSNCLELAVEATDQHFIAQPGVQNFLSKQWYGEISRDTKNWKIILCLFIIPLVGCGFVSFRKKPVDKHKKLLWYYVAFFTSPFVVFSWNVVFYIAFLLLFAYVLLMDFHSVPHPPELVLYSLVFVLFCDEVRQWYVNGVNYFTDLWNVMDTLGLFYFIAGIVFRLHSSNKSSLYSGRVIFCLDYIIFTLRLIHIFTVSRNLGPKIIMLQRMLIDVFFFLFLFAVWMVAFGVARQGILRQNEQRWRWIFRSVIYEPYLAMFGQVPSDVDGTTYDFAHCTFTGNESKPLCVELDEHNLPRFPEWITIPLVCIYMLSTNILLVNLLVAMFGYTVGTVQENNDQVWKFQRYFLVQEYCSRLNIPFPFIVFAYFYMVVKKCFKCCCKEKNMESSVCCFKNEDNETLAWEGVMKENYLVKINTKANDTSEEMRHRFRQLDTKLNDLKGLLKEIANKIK
T1 sequence (Q7Z2W7 whole entry): as above
T2 sequence (Q7Z2W7 whole entry I746A): as the sequence (Q7Z2W7 whole entry) above, with I746A counted along it

IC50 [1]: 63.1 nM | IC50 [2]: 20 nM
Compound: Clc1c(OCCNCc2ccco2)ccc2ccccc12 [Compound 1]
Effect on outward current [3]: completely abrogated electrical impulse transmission; also recorded: almost completely blocked | Activity on TRPA1 [4]: completely inactive; also recorded: didn’t have any effect | Activity on TRPV1 [5]: completely inactive; also recorded: didn’t have any effect | Effect on inhibition of TRPV3 [6]: didn’t have any effect
